The values that follow are results of earlier work, collected in US12296036B2, “Method for dyeing keratinous material, including the application of an organosilicon compound, a dyeing compound, a sealing reagent and an alkaline pre-treatment agent” (HENKEL AG & CO. KGAA, priority 2021, dated 2025).

As for `Nc1cc(S(=O)(=O)[O-])cc2cc(S(=O)(=O)[O-])c(N=Nc3ccccc3)c(O)c12.[Na+].[Na+]` [Acid Red 33, disodium salt of 5-amino-4-hydroxy-3-(phenylazo)-naphthalene-2,7-disulfonate], the solubility in water (25° C.) was 2500 µg/mL.

With `O=S(=O)([O-])c1ccc(N=Nc2c(O)ccc3ccccc23)cc1.[Na+]` [Acid Orange 7, sodium salt of 4-[(2-hydroxy-1-naphthyl)azo]benzene sulphonate], the solubility in water result (25° C.) is on record as “more than 7 g/L”.

In the case of `O=C([O-])c1c(Cl)c(Cl)c(Cl)c(Cl)c1-c1c2cc(Br)c(=O)c(Br)c-2oc2c(Br)c([O-])c(Br)cc12.[Na+].[Na+]` [Acid Red 92, disodium salt of 3,4,5,6-tetrachloro-2-(1,4,5,8-tetrabromo-6-hydroxy-3-oxanthene-9-yl) benzoic acid], the solubility in water result (25° C.) is on record as “greater than 10 g/L”.

As for `O=C([O-])C1=NN(c2ccc(S(=O)(=O)[O-])cc2)C(=O)C1N=Nc1ccc(S(=O)(=O)[O-])cc1.[Na+].[Na+].[Na+]` (centres unmarked) [Acid Yellow 23, trisodium salt of 4,5-dihydro-5-oxo-1-(4-sulfophenyl)-4-((4-sulfophenyl)azo)-1H-pyrazole-3-carboxylic acid], the “solubility in water (in words)” value (in water at 25° C.) is “readily soluble”.

Take `CCN(Cc1cccc(S(=O)(=O)[O-])c1)c1ccc(C(=C2C=CC(=[N+](CC)Cc3cccc(S(=O)(=O)[O-])c3)C=C2)c2ccccc2S(=O)(=O)[O-])cc1.[Na+].[Na+]` [Acid Blue 9]: the water solubility entry (25° C.) is given as “more than 20 wt. %”.
